Data published in ChEMBL document CHEMBL5226328, “Rational Multitargeted Drug Design Strategy from the Perspective of a Medicinal Chemist” (J Med Chem, 2021).
Each block holds one compound with its values, some of them ahead of it.

How the values were obtained:
[1] = target: Acetylcholinesterase (Homo sapiens, UniProt P22303)
Description: Inhibition of AChE (unknown origin)

[2] = target: Sodium-dependent serotonin transporter (Homo sapiens, UniProt P31645)
Description: Inhibition of SERT (unknown origin)

[3] = target: Amyloid-beta precursor protein (Homo sapiens, UniProt P05067)
Description: Inhibition of amyloid beta (1 to 42 ) (unknown origin) self aggregation

[4] = target: T1, Thromboxane-A synthase (Homo sapiens, UniProt P24557)
T1 sequence (P24557 whole entry): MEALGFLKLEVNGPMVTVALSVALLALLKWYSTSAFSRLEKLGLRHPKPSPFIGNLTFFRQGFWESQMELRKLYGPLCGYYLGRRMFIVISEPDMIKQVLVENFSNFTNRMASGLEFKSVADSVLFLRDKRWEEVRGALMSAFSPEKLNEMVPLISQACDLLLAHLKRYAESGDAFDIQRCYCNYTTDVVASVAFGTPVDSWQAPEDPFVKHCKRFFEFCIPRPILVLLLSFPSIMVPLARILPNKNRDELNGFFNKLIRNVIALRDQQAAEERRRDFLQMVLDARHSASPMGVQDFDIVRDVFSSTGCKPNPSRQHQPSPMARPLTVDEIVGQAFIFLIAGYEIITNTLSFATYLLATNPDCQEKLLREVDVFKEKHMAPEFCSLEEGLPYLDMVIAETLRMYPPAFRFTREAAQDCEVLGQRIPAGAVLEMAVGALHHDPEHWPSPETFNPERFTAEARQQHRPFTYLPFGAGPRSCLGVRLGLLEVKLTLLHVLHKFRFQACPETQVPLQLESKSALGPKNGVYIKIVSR
Description: Inhibition of TXA2 synthetase (unknown origin)

[5] = target: T2, Vitamin D3 receptor (Homo sapiens, UniProt P11473)
T2 sequence (P11473 whole entry): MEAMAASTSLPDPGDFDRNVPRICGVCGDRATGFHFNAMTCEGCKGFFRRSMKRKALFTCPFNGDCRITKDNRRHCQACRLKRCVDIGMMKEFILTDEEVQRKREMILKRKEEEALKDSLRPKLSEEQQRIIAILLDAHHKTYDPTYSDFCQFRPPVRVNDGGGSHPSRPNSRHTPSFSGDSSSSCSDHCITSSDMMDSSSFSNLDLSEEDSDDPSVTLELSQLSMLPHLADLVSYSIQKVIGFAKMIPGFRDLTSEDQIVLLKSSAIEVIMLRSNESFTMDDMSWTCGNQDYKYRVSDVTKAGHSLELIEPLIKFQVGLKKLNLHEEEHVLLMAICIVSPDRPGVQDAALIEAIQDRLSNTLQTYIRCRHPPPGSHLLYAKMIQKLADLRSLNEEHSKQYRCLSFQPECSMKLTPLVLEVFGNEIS
Description: Inhibition of VDR (unknown origin)

[6] = target: Voltage-dependent calcium channel subunit alpha-2/delta-1 (Homo sapiens, UniProt P54289)
Chain of Voltage-dependent calcium channel subunit alpha-2/delta-1 (P54289 25-956 limits assumed): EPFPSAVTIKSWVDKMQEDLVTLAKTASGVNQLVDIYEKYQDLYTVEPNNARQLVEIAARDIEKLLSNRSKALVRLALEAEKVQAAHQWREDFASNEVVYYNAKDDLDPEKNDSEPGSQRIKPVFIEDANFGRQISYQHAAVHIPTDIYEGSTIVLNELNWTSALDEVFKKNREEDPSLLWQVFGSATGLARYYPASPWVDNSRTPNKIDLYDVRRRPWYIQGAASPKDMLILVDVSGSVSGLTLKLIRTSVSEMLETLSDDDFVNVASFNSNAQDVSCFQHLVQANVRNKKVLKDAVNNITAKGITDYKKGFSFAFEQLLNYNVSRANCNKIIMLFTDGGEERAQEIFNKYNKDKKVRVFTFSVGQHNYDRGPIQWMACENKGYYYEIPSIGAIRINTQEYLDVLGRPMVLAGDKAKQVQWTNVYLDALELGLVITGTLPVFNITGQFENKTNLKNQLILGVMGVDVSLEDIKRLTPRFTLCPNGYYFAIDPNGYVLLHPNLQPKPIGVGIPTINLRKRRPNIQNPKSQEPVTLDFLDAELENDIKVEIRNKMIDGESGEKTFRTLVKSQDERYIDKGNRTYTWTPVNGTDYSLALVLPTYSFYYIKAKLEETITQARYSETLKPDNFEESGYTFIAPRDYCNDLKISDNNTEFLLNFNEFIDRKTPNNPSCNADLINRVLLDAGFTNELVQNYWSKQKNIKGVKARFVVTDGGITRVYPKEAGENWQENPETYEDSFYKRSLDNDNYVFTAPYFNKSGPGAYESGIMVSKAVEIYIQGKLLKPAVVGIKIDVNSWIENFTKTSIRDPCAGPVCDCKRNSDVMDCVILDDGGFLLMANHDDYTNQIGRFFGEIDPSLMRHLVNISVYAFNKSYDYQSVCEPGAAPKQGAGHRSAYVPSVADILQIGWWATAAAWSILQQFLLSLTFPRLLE
Chain of Voltage-dependent calcium channel subunit alpha-2/delta-1 (P54289 957-1103 limits assumed): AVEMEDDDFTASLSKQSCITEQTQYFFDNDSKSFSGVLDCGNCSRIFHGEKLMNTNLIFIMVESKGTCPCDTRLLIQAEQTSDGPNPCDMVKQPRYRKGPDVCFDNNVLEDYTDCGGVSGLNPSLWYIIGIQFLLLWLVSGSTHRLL
Description: Binding affinity to calcium channel alpha2delta1 (unknown origin)

Chain of Acetylcholinesterase (P22303 whole entry): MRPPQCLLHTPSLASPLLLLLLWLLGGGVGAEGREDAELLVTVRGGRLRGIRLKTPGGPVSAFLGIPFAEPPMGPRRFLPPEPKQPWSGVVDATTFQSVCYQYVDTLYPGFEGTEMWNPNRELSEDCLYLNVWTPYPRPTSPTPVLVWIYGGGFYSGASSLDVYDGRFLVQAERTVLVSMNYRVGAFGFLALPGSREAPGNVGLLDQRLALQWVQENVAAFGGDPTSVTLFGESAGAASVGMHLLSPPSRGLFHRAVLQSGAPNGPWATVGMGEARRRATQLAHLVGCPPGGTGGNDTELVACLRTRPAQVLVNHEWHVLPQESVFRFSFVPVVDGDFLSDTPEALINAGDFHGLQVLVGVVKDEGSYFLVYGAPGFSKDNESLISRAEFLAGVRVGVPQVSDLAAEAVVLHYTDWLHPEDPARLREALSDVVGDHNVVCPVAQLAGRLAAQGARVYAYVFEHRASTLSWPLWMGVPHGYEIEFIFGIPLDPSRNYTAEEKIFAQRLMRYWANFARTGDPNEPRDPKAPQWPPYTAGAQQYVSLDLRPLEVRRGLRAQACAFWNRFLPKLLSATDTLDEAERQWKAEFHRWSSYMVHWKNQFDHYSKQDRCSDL
Chain of Amyloid-beta precursor protein (P05067 whole entry): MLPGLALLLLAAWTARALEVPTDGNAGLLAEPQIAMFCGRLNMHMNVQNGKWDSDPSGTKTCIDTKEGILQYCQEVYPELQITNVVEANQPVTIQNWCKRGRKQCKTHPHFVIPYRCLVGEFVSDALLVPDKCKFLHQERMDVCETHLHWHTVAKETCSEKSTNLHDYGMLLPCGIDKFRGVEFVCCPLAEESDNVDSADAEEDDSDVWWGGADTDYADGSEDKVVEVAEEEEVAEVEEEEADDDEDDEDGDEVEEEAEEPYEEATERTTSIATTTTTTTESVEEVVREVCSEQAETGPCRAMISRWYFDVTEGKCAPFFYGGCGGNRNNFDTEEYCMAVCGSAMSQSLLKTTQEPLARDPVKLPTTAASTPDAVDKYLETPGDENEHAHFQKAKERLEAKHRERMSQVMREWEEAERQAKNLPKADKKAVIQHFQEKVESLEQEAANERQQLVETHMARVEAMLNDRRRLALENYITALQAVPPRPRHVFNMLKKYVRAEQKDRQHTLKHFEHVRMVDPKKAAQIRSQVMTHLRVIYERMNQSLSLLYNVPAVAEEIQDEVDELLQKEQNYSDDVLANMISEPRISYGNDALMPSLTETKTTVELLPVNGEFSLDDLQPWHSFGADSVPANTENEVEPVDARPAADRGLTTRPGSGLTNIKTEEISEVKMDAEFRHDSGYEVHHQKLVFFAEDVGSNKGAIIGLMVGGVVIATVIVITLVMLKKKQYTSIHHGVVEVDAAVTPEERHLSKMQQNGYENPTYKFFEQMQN
Chain of Sodium-dependent serotonin transporter (P31645 whole entry): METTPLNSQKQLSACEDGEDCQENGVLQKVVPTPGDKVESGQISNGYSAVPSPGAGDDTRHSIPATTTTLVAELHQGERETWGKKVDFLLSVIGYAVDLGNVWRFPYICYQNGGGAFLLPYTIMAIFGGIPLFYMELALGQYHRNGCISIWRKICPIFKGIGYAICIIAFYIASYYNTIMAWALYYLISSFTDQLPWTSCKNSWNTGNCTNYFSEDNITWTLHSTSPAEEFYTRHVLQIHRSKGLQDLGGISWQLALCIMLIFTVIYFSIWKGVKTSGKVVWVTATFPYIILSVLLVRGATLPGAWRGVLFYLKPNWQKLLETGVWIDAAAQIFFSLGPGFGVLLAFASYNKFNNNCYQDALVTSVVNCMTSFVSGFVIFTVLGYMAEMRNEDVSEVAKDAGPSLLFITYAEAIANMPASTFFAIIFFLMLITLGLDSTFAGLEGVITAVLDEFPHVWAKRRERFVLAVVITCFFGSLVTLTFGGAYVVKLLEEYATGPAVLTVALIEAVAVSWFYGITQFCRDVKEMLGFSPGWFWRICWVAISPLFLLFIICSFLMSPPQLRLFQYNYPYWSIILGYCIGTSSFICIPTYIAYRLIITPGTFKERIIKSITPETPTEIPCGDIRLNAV

Compound: CCN(C)C(=O)Oc1ccc(C(CCOc2ccc([N+](=O)[O-])cc2)NC)cc1 (stereo not given)
- IC50 [1]: 101 nM
- IC50 [2]: 42 nM

Compound: Cc1c(O)c(=O)ccn1-c1ccc(OCCCN2CCCC2)cc1
- IC50 [3]: 2850 nM

Compound: CCN(C)C(=O)Oc1ccc2c(c1)C=CC(C)N(C)C2CCOc1ccc([N+](=O)[O-])cc1 (stereo not given)
- IC50 [1]: 14 nM
- IC50 [2]: 6 nM

Compound: CC(/C=C/C(=O)NO)=C\C(C)C1CCC2/C(=C/C=C3CC(O)CC(O)C3)CCCC21C (stereo not given)
- IC50 [5]: 87 nM

Compound: CCNc1ncc2c(n1)N1CCCC1CN(c1cccc(-c3noc(C)n3)c1)C2=O (stereo not given)
- Ki [6]: 11 nM

Second part, the compound after the results:

- IC50 [4]: 4.7 nM
Compound: CCOC(=O)CCCCO/N=C(/c1cccnc1)c1cccc(CNS(=O)(=O)c2ccc(Cn3c(C)nc4ccccc43)cc2)c1

- IC50 [4]: 500 nM
Compound: O=C(O)CCCCO/N=C(/c1cccnc1)c1cccc(C(F)(F)F)c1 [RIDOGREL]

- IC50 [3]: 56000 nM
Compound: CCN(CC)CCCOc1ccc(-c2oc3ccccc3c2C(=O)c2ccc(C)cc2)cc1
